Source: ChEMBL document CHEMBL1201862, “PubChem BioAssay data set” (2004)
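1) Cells in 96-well plates. 2) Compound, 48 h, 5 concentrations. 3) Linear interpolation between surrounding doses. 4) Unreached endpoint = highest concentration. GI50 marks 50% less growth.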 The source made the active and inactive calls. Rule as the data show it: active = GI50 up to about 1.1 µM and inactive = higher.

Legend:
Experiment in all cases: DTP human tumour cell line panel, 48 h
A498 = system: A498
EKVX = system: EKVX
HCC 2998 = system: HCC 2998
HL-60 = system: HL-60
HOP-62 = system: HOP-62
HT-29 = system: HT-29
KM-20L2 = system: KM-20L2
MOLT-4 = system: MOLT-4
SF-295 = system: SF-295
SNB-19 = system: SNB-19
SNB-75 = system: SNB-75
UACC-62 = system: UACC-62
HCT-15 = system: HCT-15
NCI-H460 = system: NCI-H460
BT-549 = system: BT-549
Hs-578T = system: Hs-578T
MCF7 = system: MCF7
MDA-MB-435 = system: MDA-MB-435
NCI/ADR-RES = system: NCI/ADR-RES
T47D = system: T47D

| SMILES | GI50 (A498) | GI50 (EKVX) | GI50 (HCC 2998) | GI50 (HL-60) | GI50 (HOP-62) | GI50 (HT-29) | GI50 (KM-20L2) | GI50 (MOLT-4) | GI50 (SF-295) | GI50 (SNB-19) | GI50 (SNB-75) | GI50 (UACC-62) | GI50 (HCT-15) [µM] | GI50 (NCI-H460) | GI50 (BT-549) | GI50 (Hs-578T) | GI50 (MCF7) | GI50 (MDA-MB-435) | GI50 (NCI/ADR-RES) | GI50 (T47D) |
| --- | --- | --- | --- | --- | --- | --- | --- | --- | --- | --- | --- | --- | --- | --- | --- | --- | --- | --- | --- | --- |
| COC(=O)c1cc(Br)c(Br)n1C | > 100 µM (inactive) | 42.7 µM (inactive) | > 100 µM (inactive) | > 100 µM (inactive) | > 100 µM (inactive) | > 100 µM (inactive) | > 100 µM (inactive) | 70.3 µM (inactive) | > 100 µM (inactive) | > 100 µM (inactive) | > 100 µM (inactive) | > 100 µM (inactive) |  |  |  |  |  |  |  |  |
| Nc1ccc(C(=O)N/C(=C\c2cccc([N+](=O)[O-])c2)c2nc3c4c(ccc3[nH]2)C(=O)c2ccccc2C4=O)cc1 | 15.5 µM (inactive) | 42.6 µM (inactive) | > 100 µM (inactive) |  | > 100 µM (inactive) | 62.5 µM (inactive) | > 100 µM (inactive) | 3.94 µM (inactive) | 14 µM (inactive) | 13.6 µM (inactive) | 1.76 µM (inactive) | 53.3 µM (inactive) | 70.5 | 21.3 µM (inactive) |  |  |  |  |  |  |
| Brc1ccc2c(c1)C1(c3cc(Br)ccc3-2)c2cc(Br)ccc2-c2ccc(Br)cc21 |  | > 100 µM (inactive) | > 100 µM (inactive) | > 100 µM (inactive) | > 100 µM (inactive) | > 100 µM (inactive) | > 100 µM (inactive) | > 100 µM (inactive) | > 100 µM (inactive) | > 100 µM (inactive) |  | > 100 µM (inactive) | > 100 | > 100 µM (inactive) |  |  |  |  |  |  |
| N#C[C@@]12CCCC(=O)[C@@H]1[C@H]1CCC[C@H]12 | 17.1 µM (inactive) | 13.2 µM (inactive) | 15.1 µM (inactive) | 8.22 µM (inactive) | 15.2 µM (inactive) | 19.7 µM (inactive) |  | 21.2 µM (inactive) | 24.7 µM (inactive) | 21.7 µM (inactive) | 13.7 µM (inactive) | 22.6 µM (inactive) | 16.3 | 16.6 µM (inactive) | 17.9 µM (inactive) | 31.3 µM (inactive) | 16.4 µM (inactive) | 17.1 µM (inactive) | 22.5 µM (inactive) | 20.9 µM (inactive) |
| C[N+](C)=c1nc(N2CCc3ccccc3C2)ss1.[O-][Cl+3]([O-])([O-])[O-] | > 100 µM (inactive) |  | > 100 µM (inactive) | 34.2 µM (inactive) | > 100 µM (inactive) |  | > 100 µM (inactive) | 30.7 µM (inactive) |  | > 100 µM (inactive) | 83.6 µM (inactive) | > 100 µM (inactive) | 98.2 | > 100 µM (inactive) |  |  |  |  |  |  |
| CC(C)(C)NN=C1C(C)(C)C(=NNC(C)(C)C)C1(C)C |  |  | > 100 µM (inactive) | > 100 µM (inactive) | > 100 µM (inactive) | > 100 µM (inactive) | > 100 µM (inactive) | > 100 µM (inactive) | > 100 µM (inactive) | > 100 µM (inactive) | > 100 µM (inactive) | > 100 µM (inactive) | > 100 | > 100 µM (inactive) |  |  |  |  |  |  |
| O=C(O)CCSC(=O)Nc1cccc2ccccc12 | > 100 µM (inactive) | > 100 µM (inactive) | > 100 µM (inactive) |  | > 100 µM (inactive) | > 100 µM (inactive) | > 100 µM (inactive) | > 100 µM (inactive) | > 100 µM (inactive) | > 100 µM (inactive) | > 100 µM (inactive) | > 100 µM (inactive) | > 100 | > 100 µM (inactive) |  |  |  |  |  |  |
| CC1CCC(O)C(C(O)CC2CC(=O)N(C)C(=O)C2)C1 (stereo unspecified) | > 100 µM (inactive) | > 100 µM (inactive) | > 100 µM (inactive) | > 100 µM (inactive) | > 100 µM (inactive) | > 100 µM (inactive) | > 100 µM (inactive) | > 100 µM (inactive) | > 100 µM (inactive) | > 100 µM (inactive) | > 100 µM (inactive) | > 100 µM (inactive) |  | > 100 µM (inactive) |  |  |  |  |  |  |
| C=C(C)C1CCC2(C)CC1c1c(c(C)cc3c1[nH]c1ccccc13)O2 (stereo unspecified) |  |  | > 25 µM (inactive) | 11.9 µM (inactive) | 19 µM (inactive) | > 25 µM (inactive) | > 25 µM (inactive) | 17.5 µM (inactive) |  | > 25 µM (inactive) |  | > 25 µM (inactive) | > 25 | > 25 µM (inactive) |  |  |  |  |  |  |
| CCCCCCCCCC(=O)Oc1cccc2onc(C)c12 |  | > 100 µM (inactive) | 79.1 µM (inactive) | 19.4 µM (inactive) | > 100 µM (inactive) | > 100 µM (inactive) | > 100 µM (inactive) | 66.8 µM (inactive) | > 100 µM (inactive) | > 100 µM (inactive) | > 100 µM (inactive) | > 100 µM (inactive) | > 100 | > 100 µM (inactive) |  |  |  |  |  |  |
| CCO/C=C\C12CCCC1NC(c1ccccc1)(c1ccccc1)O2 (stereo unspecified) | 53.5 µM (inactive) | 43.9 µM (inactive) |  | 18.2 µM (inactive) | 41.5 µM (inactive) | 23.2 µM (inactive) | 23.1 µM (inactive) | 19.2 µM (inactive) | 32.7 µM (inactive) | 45.7 µM (inactive) | 19.5 µM (inactive) | 21.7 µM (inactive) |  | 48.8 µM (inactive) |  |  |  |  |  |  |
| C=CCC1([C@H](C)[C@@H](OC(C)=O)c2cc(OC)c(OC)c(OC)c2)C[C@@H](OC)CCC1=O (stereo partly specified) |  | 26.2 µM (inactive) |  | 12.8 µM (inactive) | 35.7 µM (inactive) | 14.1 µM (inactive) | 12 µM (inactive) | 18.6 µM (inactive) | 16 µM (inactive) |  | 18 µM (inactive) | 16.1 µM (inactive) | 14.2 | 17.7 µM (inactive) |  |  |  |  |  |  |
| CN(NC(=O)CCCl)C1=NCCCCN1 | > 100 µM (inactive) | > 100 µM (inactive) | > 100 µM (inactive) | > 100 µM (inactive) | > 100 µM (inactive) | > 100 µM (inactive) |  | > 100 µM (inactive) | > 100 µM (inactive) | > 100 µM (inactive) | > 100 µM (inactive) | > 100 µM (inactive) | > 100 | > 100 µM (inactive) | > 100 µM (inactive) | > 100 µM (inactive) | > 100 µM (inactive) | > 100 µM (inactive) | > 100 µM (inactive) | > 100 µM (inactive) |
| O=C(Cc1ccccc1)NN1C(=O)C(Cl)C1c1ccc(O)cc1 (stereo unspecified) |  | > 100 µM (inactive) | > 100 µM (inactive) | 62.7 µM (inactive) | > 100 µM (inactive) | > 100 µM (inactive) | > 100 µM (inactive) | > 100 µM (inactive) | > 100 µM (inactive) | > 100 µM (inactive) | 47.2 µM (inactive) | > 100 µM (inactive) | > 100 | > 100 µM (inactive) |  |  |  |  |  |  |
| O=C1c2c(Cl)c(Cl)c(Cl)c(Cl)c2C(=O)N1CCN(c1c(Cl)ssc1=O)c1c(Cl)ssc1=O | > 100 µM (inactive) | 32.1 µM (inactive) | 21.2 µM (inactive) | 30.2 µM (inactive) | > 100 µM (inactive) | 19.5 µM (inactive) |  | 10.3 µM (inactive) | > 100 µM (inactive) | > 100 µM (inactive) | 31.6 µM (inactive) | 19.3 µM (inactive) | 19.5 | 32.1 µM (inactive) | 30.9 µM (inactive) | > 100 µM (inactive) | 19.6 µM (inactive) | 19.8 µM (inactive) | 49.3 µM (inactive) | 17.1 µM (inactive) |
| O=C(NO)c1ccc(OCc2ccccc2)cc1 | 16.3 µM (inactive) | 20.7 µM (inactive) | 22.6 µM (inactive) | 16 µM (inactive) | 35.1 µM (inactive) | 29.2 µM (inactive) |  | 15.3 µM (inactive) | 26.2 µM (inactive) | 33.3 µM (inactive) | 29.4 µM (inactive) | 14.9 µM (inactive) | 15 | 19.5 µM (inactive) | 26.5 µM (inactive) | 65.3 µM (inactive) | 55.8 µM (inactive) | 29.2 µM (inactive) | 4 µM (inactive) | 11.5 µM (inactive) |
| O=S1(=O)c2cnccc2N=C(NCc2ccccc2)N1c1ccccc1 | > 100 µM (inactive) | > 100 µM (inactive) | 67.1 µM (inactive) | 41.4 µM (inactive) | > 100 µM (inactive) | 81.1 µM (inactive) |  | 34.9 µM (inactive) | 89.1 µM (inactive) | > 100 µM (inactive) | 69.5 µM (inactive) | 46.7 µM (inactive) | 74.5 | 49.7 µM (inactive) | > 100 µM (inactive) | 58.3 µM (inactive) | 54.5 µM (inactive) | 92.3 µM (inactive) | 68.1 µM (inactive) | 35.8 µM (inactive) |
| COc1ccc(/C=C\c2cc(OC)c(OC(C)=O)c(OC)c2)cc1 | 14.2 µM (inactive) | 15.6 µM (inactive) | 10.7 µM (inactive) |  | 5.92 µM (inactive) | 12.4 µM (inactive) | 29.5 µM (inactive) | 6.43 µM (inactive) |  | 7.24 µM (inactive) | 2.84 µM (inactive) | 8.15 µM (inactive) | 5.12 | 2.49 µM (inactive) |  |  |  |  |  |  |
| COc1ccc(/C=C2\CCC(C)C3=C2NC(=S)NC3c2ccc(OC)c(OC)c2)cc1OC (stereo unspecified) | > 31.6 µM (inactive) | 20.1 µM (inactive) | 74.1 µM (inactive) | 3.6 µM (inactive) | > 100 µM (inactive) | 26 µM (inactive) |  | 4.99 µM (inactive) | 12 µM (inactive) | 30.4 µM (inactive) | > 100 µM (inactive) | 20.2 µM (inactive) | 9.95 | 41.8 µM (inactive) | 13.3 µM (inactive) | 30.8 µM (inactive) | 14.9 µM (inactive) | 6.3 µM (inactive) | 27.5 µM (inactive) | 2.33 µM (inactive) |
